Assays:
[1] = system: superovulated ewes (embryos recovered at the morula stage); assay: Experiment 1: retinoid treatment of superovulated ewes, in vitro development of recovered morula-stage embryos; format: in vivo, sheep; conditions: for embryo quality score (grade 1=excellent to 4=degenerate) immediately after collection / in vitro blastocyst formation / embryonic hatching rate in vitro: ROH 500,000 IU, RA 15 mg; for embryo quality score (grade 1=excellent to 4=degenerate) immediately after collection / in vitro blastocyst formation: CIS 15 mg on first and last day of FSH; for embryo quality score (grade 1=excellent to 4=degenerate) immediately after collection: morula stage; for in vitro blastocyst formation: morulae cultured 72 h in TCM 199; for embryonic hatching rate in vitro: CIS 15 mg, morulae cultured 72 h
Method: (§1) Referring now to FIGS. 1 and 2, a series of experiments were carried out to examine the effect of retinoid administration on superovulated sheep. In these experiments, the estrous cycles of sexually mature crossbred ewes were synchronized using progestin implants (Synchromate B) combined with prostaglandin F2-alpha (Lutalyse) injections, and superovulation was induced by multiple FSH injections. Briefly, animals were administered one progestin implant and 6 days later received two Lutalyse injections (15 mg i.m.) 12 hours apart. Superovulation was induced using a total of 24 units of FSH administered twice daily in decreasing doses over 3 days (5.5, 4.4, 3.3 units per injection, respectively) beginning 9-11 days after implant administration. Retinoid treatments were administered on the first and last day of FSH injections. Implants were removed at the time of the fifth FSH injection, and animals were checked for estrus 24 hours later. […] All animals were maintained on high-quality hay and fed ad libitum, with free-choice access to a sheep and goat mineral premix that contained 1 million IU vitamin A per pound.
In the first experiment, performed under decreasing day length (fall), 25 ewes were randomly assigned to one of the following treatments: (1) all-trans retinol (ROH; 500,000 IU, n=6); (2) all-trans retinoic acid (RA; 15 mg, n=6); (3) 9-cis retinoic acid (CIS; 15 mg, n=7); or (4) vehicle (Control; n=6), which was corn oil. Animals were surgically ovohysterectomized at 144 hours post-implant removal, and uteri were gently flushed twice with culture medium (tissue culture medium 199 [TCM 199]) to collect morula stage embryos. Two ewes from the RA group wer dropped from the study: one because of a total lack of response to the FSH treatment, the other because of overstimulation resulting in more than 50 ovulations with none of the ova fertilizing. This left 4 animals in the RA group, 5 in each of the ROH and Control groups, and 7 in the CIS group.
Embryos (morulae) collected in experiments 1 and 2 were categorized according to morphology, developmental stage, and quality based on a procedure developed for bovine embryos. See, Lindner and Wright, Theriogenology 1983; 20:407-416. Quality grades ranged from 1 to 4, with 1=excellent, 2=good, 3=poor, and 4=degenerate. One individual, who was unaware of treatments at the time, performed all of the grading.
In the first two experiments, morula-stage embryos were cultured in TCM 199 with Earle's salt supplemented with 10% FBS and 1 mM glutamine. See, Bavister BD. Studies on the developmental blocks in cultured hamster embryos. In: Bavister BD (ed.), The Mammalian Preimplantation Embryo: Regulation of Growth and Differentiation in vitro. New York:Plenum Press; 1987:219-249. The FBS had been twice stripped of low molecular weight molecules with charcoal, and retinol concentrations were below detection levels as determined by fluorescent analysis. See, Selvaraj and Susheela, Clin Chim Acta 1970; 27:165-170. In the third experiment, 1- to 4-cell embryos were cultured in SOF supplemented with 3 mg/ml BSA and essential and nonessential amino acids. See, Carolan et al., Theriogenology 1995; 43:1115-1128. Both media were prepared weekly, filtered through a 0.2 um filter, and allowed to equilibrate for 2 hours in a humidified atmosphere at 38.5° C. containing 5% CO2 in air.
Morula-stage embryos (experiments 1 and 2) were washed a minimum of three times in the outer well of organ culture dishes and then transferred with a minimum amount of medium into the inner well, which contained 3 ml of TCM 199. Embryos from each ewe were cultured in one dish, and there were no significant differences in the average number of embryos per dish between treatments. Embryos were cultured for 96 hours and observed daily for blastocyst formation and complete hatching from the zona pellucida. No further development was observed after 72 hours in culture, and all data presented reflect that time period. […]

[2] = system: recipient ewes receiving embryos from treated donor ewes; assay: Pregnancy rates after transfer of frozen embryos from retinol-treated superovulated ewes; format: in vivo, sheep
Source text: Twenty-four ewes were synchronized, superovulated and administered treatments, as described previously (Eberhardt, Will and Godkin. Biol Reprod 60, 1483-1487, 1999). Briefly, animals received a progestagen implant and six days later received two injections of prostaglandin F2-alpha (Lutalyse, Upjohn Co. Kalamazoo, Mich.) twelve hours apart. Superovulation was induced with 24 units of porcine follicle stimulating hormone (FSH, Sioux Biochemical, Sioux City, Iowa) in decreasing doses over 3 days beginning 9-11 days after implant administration. All-trans retinol was administered to twelve ewes in corn oil at 500,000 IU per injection on the first and last day of FSH injections. Control ewes (12) received corn oil without retinol.
Embryos at the morula stage of development (168 h post implant removal) were collected by gently flushing the uterus with phosphaste-buffered saline+2% bovine serum albumin (BSA) following surgical hysterectomy. Embryos were frozen by conventional methods (Leibo. Theriogenology 21: 767. 1984) using ethylene glycol as the cryoprotectant in a programmable freezer and stored in liquid N2. After three months, embryos were thawed briefly (30 seconds) at 37° C. and two embryos were transferred directly into the uterine horn of synchronized recipient ewes. Seven recipient ewes received embryos from retinol-treated ewes and 11 recipient ewes received embryos from control ewes. Pregnancy rates were determined by ultrasonography 30-40 days after transfer.

[3] = cited from earlier work
[4] = system: superovulated ewes (1- to 4-cell embryos); assay: Experiment 3: ROH treatment of superovulated ewes, in vitro development of 1- to 4-cell embryos; format: in vivo, sheep; conditions: 1- to 4-cell embryos cultured in SOF
Method: as §1
The third study involved two identical experiments performed sequentially in the fall and winter. Results were not different between seasons, and the data were combined. A total of 24 ewes, not used in the previous experiments, received either ROH (n=12) or Control (n=12) treatment in combination with FSH, followed by natural mating at estrus, as in experiment 2. At 84 hours post-implant removal, ewes were salphincectomized and oviducts gently flushed with culture medium in order to recover 1- to 4-cell embryos.
(§2) In the first two experiments, morula-stage embryos were cultured in TCM 199 with Earle's salt supplemented with 10% FBS and 1 mM glutamine. See, Bavister BD. […] The FBS had been twice stripped of low molecular weight molecules with charcoal, and retinol concentrations were below detection levels as determined by fluorescent analysis. […]
(§3) Data were checked for normality and analyzed using the Statistical Analysis System (SAS Institute Inc., Cary, N.C.). […]

[5] = system: superovulated ewes (embryos recovered at the morula stage); assay: Experiment 2: ROH treatment of superovulated ewes (winter), in vitro development of morula-stage embryos; format: in vivo, sheep
Method: as §1
The second experiment was a repetition of the first, with the exceptions that it was performed under increasing day length (winter) and only the ROH and Control treatments were administered (in combination with FSH) to 24 ewes (12 per treatment) not used in the previous experiment. One ewe from the Control group was dropped from the study for failure to respond to FSH treatment. […]
as §2, with “glutamine.” for “glutamine. See, Bavister BD.”
as §3

[6] = system: in vitro produced bovine embryos (presumptive zygotes); assay: In vitro retinol treatment of presumptive zygotes, blastocyst formation; format: cell-based; conditions: 7-8 days culture
Method: The effects of retinol and retinoic acid on early embryonic development of in vitro produced bovine embryos were investigated. Oocytes and their surrounding cumulus cells were collected from bovine ovaries, matured in vitro for 24 h and fertilized by standard procedures for 8-10 h. Presumptive zygotes were denuded of cumulus cells, washed and cultured in modified synthetic oviduct fluid (a standard culture medium) in the presence or absence of retinol ([…]) at 38.5° C. in a humidified atmosphere of 5% CO2 in air. Embryos were cultured for 7-8 days.
Blastocyst (a fluid filled ball of approximately 100 cells, containing a inner cell mass which gives rise to the fetus and a trophoblast which gives rise to the placenta) formation was used as an end point for in vitro development. The above experiment was performed three times using 210 embryos in each treatment group with 70 embryos/group (630 total, 210/treatment). Embryonic development to the blastocyst stage, expressed as % blastocyst/cleaved embryos, was control (no retinol)=28.33%, 1 uM Retinol=48.66%, 10 uM Retinol=57.33%.

SMILES | embryo quality score (grade 1=excellent to 4=degenerate) immediately after collection [1] | in vitro blastocyst formation [1] [%] | embryonic hatching rate in vitro [1] [%] | pregnancy rate of recipient ewes ([2]; donors given 500,000 IU per injection on first and last day of FSH, two frozen-thawed embryos transferred, ultrasonography 30-40 days after transfer) [%] | number of the six pregnant recipient ewes carrying twins ([2]; embryos from retinol-treated donor ewes) | survival of all transferred embryos ([2]; embryos from retinol-treated donor ewes, 30-40 days after transfer) [%] | solubility in ethanol, methanol, ether, fats, and oil ([3]; ethanol, methanol, ether, fats, oil) | solubility in water or aqueous salt solutions ([3]; water or aqueous salt solutions) | blastocyst hatching [4] [%] | blastocyst formation ([4]; n=230 embryos, p<0.05) [%] | embryos that progressed through the 8-cell in vitro block ([4]; p<0.05) [%] | fold increase in hatching rate in comparison with vehicle treatment [5] [fold] | hatching rate ([5]; ROH treatment of donor ewes, p<0.05) [%] | percentage of embryos that formed blastocysts ([5]; ROH treatment of donor ewes, winter, n=243 embryos) [%] | fold increase in in vitro blastocyst formation compared to RA, CIS or Control animals ([1]; p<0.05) | embryonic development to the blastocyst stage, % blastocyst/cleaved embryos ([6]; 1 uM Retinol in modified synthetic oviduct fluid) [%] | embryonic development to the blastocyst stage, % blastocyst/cleaved embryos ([6]; 10 uM Retinol in modified synthetic oviduct fluid) [%]
CC1=C(/C=C/C(C)=C\C=C\C(C)=C\C(=O)O)C(C)(C)CCC1 [CIS, 9-cis retinoic acid] | 2.4±0.2 | 33 | 38 | – | – | – | – | – | – | – | – | – | – | – | – | – | –
CC1=C(/C=C/C(C)=C/C=C/C(C)=C/C(=O)O)C(C)(C)CCC1 [RA, all-trans retinoic acid] | – | 27 | 55 | – | – | – | – | – | – | – | – | – | – | – | – | – | –
CC1=C(/C=C/C(C)=C/C=C/C(C)=C/CO)C(C)(C)CCC1 [ROH, all-trans retinol] | 1.9±0.1 | 72 | 73 | 86 | five | 78.6 | soluble | practically insoluble | 71 | 79 | 94 | ~3 | 70 | 70 | greater than 2 fold | 48.66 | 57.33

Reference: patent US20020028849A1, “Use of retinol in assisted-reproduction protocols” (priority 2000, published 2002)
